Measurements from ChEMBL document CHEMBL1141481, “Probing the structural and topological requirements for CCR2 antagonism: holographic QSAR for indolopiperidine derivatives” (Bioorg Med Chem Lett, 2008).
Where “and” joins values, the source holds several entries; their conditions need not be identical. Identical values can stand only once.

Target: C-C chemokine receptor type 2 (Homo sapiens, UniProt P41597)
Test: Antagonist activity at human CCR2 receptor

Sequence of C-C chemokine receptor type 2 (P41597 whole entry): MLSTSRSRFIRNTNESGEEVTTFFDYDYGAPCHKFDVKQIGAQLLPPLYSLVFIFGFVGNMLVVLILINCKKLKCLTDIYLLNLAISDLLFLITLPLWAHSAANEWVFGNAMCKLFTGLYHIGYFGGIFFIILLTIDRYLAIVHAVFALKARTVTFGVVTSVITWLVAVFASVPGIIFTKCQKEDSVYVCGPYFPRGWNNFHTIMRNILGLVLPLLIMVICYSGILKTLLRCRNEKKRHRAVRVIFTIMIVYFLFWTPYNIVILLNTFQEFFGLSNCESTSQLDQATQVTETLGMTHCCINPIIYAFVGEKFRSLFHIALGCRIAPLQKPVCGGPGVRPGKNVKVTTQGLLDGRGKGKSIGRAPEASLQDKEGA

SMILES	Ki
O=C(/C=C/c1ccc(-c2ccccc2)cc1)NCCCCCN1CCC(c2c[nH]c3ccccc23)CC1	1480 nM
CCCCc1ccc(/C=C/C(=O)NCCCCCN2CCC(c3c[nH]c4ccccc34)CC2)cc1	1700 nM
O=C(/C=C/c1ccc(Cl)c(Cl)c1)N[C@H]1CC[C@H](CN2CCC(c3c[nH]c4ccccc34)CC2)CC1	631 nM and 646 nM
CC(=O)Nc1ccc(/C=C/C(=O)NCCCCCN2CCC(c3c[nH]c4ccccc34)CC2)cc1	12900 nM
O=C(NCCCCCN1CCC(c2c[nH]c3ccccc23)CC1)Nc1ccc(Cl)c(Cl)c1	1620 nM
O=C(/C=C/c1ccc(Cl)c(Cl)c1)NCCCCCN1CCC(c2c[nH]c3ccccc23)CC1	427 nM

The remaining lines, values ahead:

Ki	SMILES
7240 nM	O=C(NCCCCCN1CCC(c2c[nH]c3ccccc23)CC1)c1ccc(Br)cc1
562 nM	Cc1ccc(/C=C/C(=O)NCCCCCN2CCC(c3c[nH]c4ccccc34)CC2)cc1
355 nM	O=C(/C=C/c1ccc(Br)cc1)NCCCCCN1CCC(c2c[nH]c3ccccc23)CC1
4470 nM	O=C(Cc1ccc(Cl)c(Cl)c1)NCCCCCN1CCC(c2c[nH]c3ccccc23)CC1
4470 nM	O=C(/C=C/c1ccccc1Cl)NCCCCCN1CCC(c2c[nH]c3ccccc23)CC1
5500 nM	O=C(NCCCCCN1CCC(c2c[nH]c3ccccc23)CC1)c1ccc(-c2ccccc2)cc1
468 nM	O=C(/C=C/c1ccc(I)cc1)NCCCCCN1CCC(c2c[nH]c3ccccc23)CC1
